How the values were obtained:
[1] = test system: nucleolar 2-0-methyltransferase; conditions: vs (R,S) diasteriomer; cited from earlier work
[2] = suggested; control of morning sickness during pregnancy; cited from earlier work
[3] = test system: S-adenosyl-l-methionine-dependent methyltransferases; conditions: cited from earlier work
methyltransferases = conditions: other methyltransferases; cited from earlier work
migraines = conditions: human, in vivo; cited from earlier work
muscarinic receptors = conditions: rats treated chronically; cited from earlier work
memory = conditions: treated vs age matched untreated animals, old and young; cited from earlier work
intrahepatic cholestasis = conditions: oral, intrahepatic cholestasis patients; cited from earlier work
primary fibromyalgia = conditions: oral, short-term trial; cited from earlier work
[4] = test system: peripheral occlusive arterial disease; conditions: patients with peripheral occlusive arterial disease; cited from earlier work
Alzheimer's disease = conditions: preliminary study; cited from earlier work
[5] = test system: tumor necrosis factor alpha; conditions: cited from earlier work
human erythrocytes = conditions: incubated in vitro with human erythrocytes; cited from earlier work
brain oxidative status = conditions: chronically administered, rats; cited from earlier work
[6] = test system: alcoholic liver cirrhosis; conditions: oral, vs placebo treated group; cited from earlier work
liver glutathione = conditions: oral, patients with and without liver disease; cited from earlier work
[7] = test system: total parenteral nutrition-induced cholestasis; conditions: rat; cited from earlier work
beta-adrenergic = conditions: L-form vs D-enantiomer; cited from earlier work
[8] = test system: patients with major depressive episode (DSM-III); assay: open, non-blind study of depression, Hamilton Rating Scale for Depression; type: in vivo, human; conditions: 400 mg twice daily, 14 days
Description: (S,S)-S-adenosyl-l-methionine p-toluene sulfonate 400 mg was administered twice daily in an open, non-blind study of 10 volunteers who gave informed consent. All patients had normal results on pre-study medical examinations, including laboratory examinations. Patients received 400 mg of (S,S)-S-adenosyl-l-methionine p-toluene sulfonate in an enteric-coated tablet form twice daily for 14 days or until remission of depression symptoms. The 10 patients satisfied the DSM-III criteria for a major depressive episode. Patients' symptoms were monitored daily using the Hamilton Rating Scale for Depression. 9 patients completed the study. […] One patient had no change at all.

[9] = enteric-coated tablet, 9 patients completed

C[S@@+](CC[C@H](N)C(=O)O)C[C@H]1O[C@@H](n2cnc3c(N)ncnc32)[C@H](O)[C@@H]1O [(S,S)-S-adenosyl-l-methionine]
tightness of enzyme binding relative to (R,S)-S-adenosyl-l-methionine [1]: 10 fold

O=C1CCC(N2C(=O)c3ccccc3C2=O)C(=O)N1 (single isomer, unassigned) [L-enantiomer, thalidomide]
safety and effect of thalidomide enantiomer in pregnancy [2]: potent teratogen

C[S@@+](CC[C@@H](N)C(=O)O)C[C@H]1O[C@@H](n2cnc3c(N)ncnc32)[C@H](O)[C@@H]1O [(R,S)-S-adenosyl-l-methionine]
inhibition of enzyme-catalyzed transmethylation reactions [3]: potent inhibitor | binding relative to (S,S)-S-adenosyl-l-methionine (methyltransferases): to the same extent

C[S+](CC[C@H](N)C(=O)[O-])C[C@H]1O[C@@H](n2cnc3c(N)ncnc32)[C@H](O)[C@@H]1O (stereo partly drawn) [S-adenosyl-l-methionine]
benefit in migraines (migraines): found to be of benefit | number of muscarinic receptors in the brain (muscarinic receptors): increase the number of muscarinic receptors | performance in eight arm radical maze test versus untreated animals (memory): out-perform | pruritus and biochemical markers of cholestasis (intrahepatic cholestasis): improvements in both the pruritus as well as the biochemical markers of cholestasis | improvement in primary fibromyalgia (primary fibromyalgia): significant improvement | blood viscosity [4]: reduce blood viscosity | cognitive effect in patients with Alzheimer's disease (Alzheimer's disease): cognitive improvement | amount of tumor necrosis factor alpha secreted by cells [5]: decrease the amount | damage caused by tumor necrosis factor alpha [5]: attenuates the damage | ATP within the erythrocyte (human erythrocytes): increases ATP within the cell | oxidative status in the brain (brain oxidative status): enhancing anti-oxidative defenses | overall mortality and/or progression to liver transplant [6]: 12% | liver glutathione levels (liver glutathione): increases in liver glutathione levels | cholestasis resulting from total parenteral nutrition [7]: able to prevent cholestasis

CC(C)NCC(O)COc1cccc2ccccc12 (centres unmarked) [propranolol]
potency relative to the D-enantiomer (beta-adrenergic): 100 times

O=C1CCC(N2C(=O)c3ccccc3C2=O)C(=O)N1 (single isomer, unassigned) [D-enantiomer of thalidomide, thalidomide]
safety and effect of thalidomide enantiomer in pregnancy [2]: safe and effective sedative

C[S@@+](CC[C@H](N)C(=O)O)C[C@H]1O[C@@H](n2cnc3c(N)ncnc32)[C@H](O)[C@@H]1O.Cc1ccc(S(=O)(=O)[O-])cc1 [(S,S)-S-adenosyl-l-methionine p-toluene sulfonate]
side effects (reported, laboratory or physical examination) [8]: No side effects were noted or reported | patients who completed the trial and improved (Hamilton Rating Scale for Depression) [8, 9]: Eight of the nine | patients with no change [8, 9]: One

Reference: patent publication US20040063660A1, “Diasteriomers of S-adenosyl-l-methionine and uses thereof” (priority 2000, published 2004)
